According to the supplement of paper PMC10307832:

Experiments:
Assay in all cases: relative viability (nuclei count vs DMSO), 5 days (fraction); higher = more cells survive
[1] = compound: CC[C@@H]1C(=O)N(C)c2cnc(Nc3ccc(C(=O)NC4CCN(C)CC4)cc3OC)nc2N1C1CCCC1 [BI-2536] + NC(=O)Nc1cc(-c2cccc(F)c2)sc1C(=O)N[C@H]1CCCNC1 [AZD7762] (partner 0.2 µM)
Procedure, shortened: (§1)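 Values are medians from duplicate plates. Each reflects relative viability, defined as the nuclei count of treated wells over that of vehicle wells. Lung cancer cell lines in 1536-well plates were pin-tool dosed one day after seeding with one drug alone or with a fixed anchor-drug dose plus five library-drug doses (not always all listed) in √10 steps, then fixed, stained and imaged at 4× after 5 days.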

[2] = compound: CC1CC(=O)N(C2=CN=C(N=C2N1C3CCCC3)NC4=C(C=C(C=C4)C(=O)NC5CCN(CC5)C)OC)C [NPK76-II-72-1] + C[C@@H](Oc1cc(-c2cnn(C3CCNCC3)c2)cnc1N)c1c(Cl)ccc(F)c1Cl [Crizotinib] (partner 1 µM)
Procedure, shortened: as §1

[3] = compound: CC1CC(=O)N(C2=CN=C(N=C2N1C3CCCC3)NC4=C(C=C(C=C4)C(=O)NC5CCN(CC5)C)OC)C [NPK76-II-72-1] + CC(C)C[C@H](NC(=O)[C@H](Cc1ccccc1)NC(=O)c1cnccn1)B(O)O [Bortezomib] (partner 0.002 µM)
Procedure, shortened: as §1

[4] = compound: CC[C@@H]1C(=O)N(C)c2cnc(Nc3ccc(C(=O)NC4CCN(C)CC4)cc3OC)nc2N1C1CCCC1 [BI-2536] + CC(C)C[C@H](NC(=O)[C@H](Cc1ccccc1)NC(=O)c1cnccn1)B(O)O [Bortezomib] (partner 0.002 µM)
Procedure, shortened: as §1

Cell Line	relative viability ([1]; first compound 0.03162 µM)	relative viability ([1]; first compound 0.1 µM)	relative viability ([1]; first compound 0.3162 µM)	relative viability ([1]; first compound 1 µM)	relative viability ([2]; first compound 0.01 µM)	relative viability ([2]; first compound 0.03162 µM)	relative viability ([2]; first compound 0.1 µM)	relative viability ([2]; first compound 0.3162 µM)	relative viability ([2]; first compound 1 µM)	relative viability ([3]; first compound 0.01 µM)	relative viability ([3]; first compound 0.03162 µM)	relative viability ([3]; first compound 0.1 µM)	relative viability ([3]; first compound 0.3162 µM)	relative viability ([3]; first compound 1 µM)	relative viability ([4]; first compound 0.01 µM)	relative viability ([4]; first compound 0.03162 µM)	relative viability ([4]; first compound 0.1 µM)	relative viability ([4]; first compound 0.3162 µM)	relative viability ([4]; first compound 1 µM)	relative viability ([1]; first compound 0.01 µM)
NCI-H2342	0.459	0.411	0.267	0.349																
SK-MES-1					0.967	0.999	1.01	0.956	1.02											
HCC-366	0.37	0.156	0.017	0.0177	0.458	0.683	0.694	0.429	0.59	0.952	1.1	1.03	0.94	0.99	1.09	1.1	0.155	0.0158	0.0163	0.246
201T	0.647	0.588	0.33	0.255	1.01	1.01	1.02	1.01	1.01	1.07	1.14	1.08	1.17	1.1	1.11	1.12	1.07	1.09	0.367	0.609
HCC-827	0.217	0.186	0.182	0.14	1.01	0.912	0.902	0.895	0.892	0.975	1.11	1.05	0.956	1.29	1.07	0.971	0.974	0.638	0.377	0.234
NCI-H647	0.308	0.257	0.0341	0.0503	1.06	1.15		0.966	1.06	0.847	1.1		0.853	1.05	0.799	0.888	0.457	0.0877	0.087	0.542
NCI-H2023					0.655	0.571	0.648	0.508	0.733	0.968	1.09	1.15	1.01	1.23	0.943	0.87	0.193	0.0834	0.0889	
NCI-H520					0.713	0.914	0.716	0.75	0.751	0.731	0.766	0.385	0.514	0.544	0.741	0.321		0.194	0.123	
RERF-LC-KJ	0.926	0.808	0.142	0.174	0.808	0.644	0.771	0.728	0.868	1.11	1.11	1.07	0.916	1.08	1.12	1.28	0.939	0.221	0.264	0.943
A-427	0.867	0.436	0.195	0.173	0.798	0.908	0.907	0.777	0.969	0.935	0.977	1.06	0.932	1.02	0.955	1.04	0.763	0.123	0.1	0.728
NCI-H441	1.21	0.228	0.174	0.21	0.928	0.692	0.505	0.7	0.699	0.872	0.312	0.319	0.527	0.451	0.333	0.719	0.209	0.152	0.177	0.977
NCI-H1703	0.174	0.0928	0.0808	0.0722	0.525	0.754	0.774	0.641	0.628	0.255	0.316	0.323	0.318	0.348	0.313	0.252	0.13	0.161	0.11	0.141
NCI-H1792	0.692	0.415	0.0392	0.0281	1.05	0.817	0.968	1	1.07	1.06	0.961	0.829	0.879	1.07	0.985	1	1.06	0.716	0.147	0.704
Calu-6					0.757	0.784	0.763	0.713	0.861	0.992	1.03	1.16	0.894	1.06	0.871	0.62	0.183	0.144	0.141	
SK-LU-1					0.812	1.07	0.93	0.859	0.981	0.931	1.15	0.829	1.23	1.42	0.978	1.12	0.465	0.201	0.174	
PC-3 [JPC-3]	0.76	0.321	0.216	0.197	0.943	0.958	0.998	0.938	0.995	0.83	0.897	0.581	0.778	0.81	0.799	0.93	0.834	0.5	0.233	0.878
EMC-BAC-2	1.21	0.777	0.269	0.277	0.765	0.817	0.658	0.783	0.823	1.06	1.15	0.951	1.01	1.12	1.08	1.11	1.06	0.628	0.172	1.05
LK-2	0.5	0.121	0.0816	0.091	0.22	0.247	0.238		0.241											0.463
NCI-H2126	1.09	0.855	0.428	0.223	1.02	1.07	0.965	1.01	1.06	1.01	1.16	1.11	1.07	1.16	1.19	1.1	1.05	0.636	0.227	1.01
NCI-H3122	1	0.204	0.139	0.117	0.268	0.272	0.282	0.294	0.329	1	1.01	0.935	1.03	1.02	0.982	1.01	0.43	0.231	0.242	0.939
NCI-H1975	0.568	0.639	0.236	0.177	0.939	0.965	0.914	0.876	0.95	0.34	0.37	0.292	0.41	0.402	0.318	0.248	0.243	0.144	0.117	0.726
NCI-H1944	0.611	0.269	0.12	0.13	0.985	1.12	1.1	1.01	1.22											0.476

Cell Line	relative viability ([1]; first compound 0.03162 µM)	relative viability ([1]; first compound 0.1 µM)	relative viability ([1]; first compound 0.3162 µM)	relative viability ([1]; first compound 1 µM)	relative viability ([2]; first compound 0.01 µM)	relative viability ([2]; first compound 0.03162 µM)	relative viability ([2]; first compound 0.1 µM)	relative viability ([2]; first compound 0.3162 µM)	relative viability ([2]; first compound 1 µM)	relative viability ([3]; first compound 0.01 µM)	relative viability ([3]; first compound 0.03162 µM)	relative viability ([3]; first compound 0.1 µM)	relative viability ([3]; first compound 0.3162 µM)	relative viability ([3]; first compound 1 µM)	relative viability ([4]; first compound 0.01 µM)	relative viability ([4]; first compound 0.03162 µM)	relative viability ([4]; first compound 0.1 µM)	relative viability ([4]; first compound 0.3162 µM)	relative viability ([4]; first compound 1 µM)	relative viability ([1]; first compound 0.01 µM)
LU99A	0.334	0.111	0.145	0.102	0.563	0.596	0.649	0.508	0.584	1.17	1.28	1.23	0.952	1.3	1.04	1.12	0.244	0.19	0.193	0.309
SW 1573					0.637	0.891	0.77	0.686	0.912	1.13	1.04	0.822	1.04	1.27	1.12	1.15	0.967	0.14	0.152	
NCI-H2347	0.643	0.73	0.545	0.325	0.742	0.698	0.715	0.718	0.944	0.827	1.24	0.697	0.756	1.01	0.864	0.963	0.859	0.482	0.476	0.647
NCI-H2009					0.915	1.12	0.974	1.01	1.15	1.01	1.1	1.09	0.842	1.24	1.02	0.916	0.413	0.156	0.108	
COR-L23					0.73	0.715	0.738	0.619	0.647	0.942	1	0.889	0.961	0.99	1.08	0.901	0.27		0.101	
NCI-H1299					0.921	0.911	0.984	0.932	0.919	0.994	1.07	1.02	1.02	1	0.985	1.05	0.981	0.419	0.351	
NCI-H1650					1.01	1.07	0.861	0.917	1.11	0.211	0.191	0.183	0.218	0.211	0.198	0.195	0.18	0.18	0.171	
NCI-H1793	0.519	0.102	0.128	0.123																0.45
COR-L 105					0.709	0.899	0.643	0.61	0.979	0.699	0.982	0.848	0.672	1.12	0.764	0.761	0.344	0.245	0.237	
NCI-H2228					0.404	0.611	0.48	0.39	0.711	0.799	0.81	0.935	0.942	1.31	1.13	0.911	0.16	0.198	0.187	
NCI-H1648	0.775	0.432	0.332	0.224																0.767
NCI-H661					0.873	0.937	0.982		0.995	0.912	0.793	0.688	0.647	0.854	0.959	0.868	0.727	0.191	0.257	
NCI-H1563					0.875	0.905	0.84	0.825	0.932	0.883	0.861	0.712	0.883	0.879	0.935	0.802	0.842	0.563	0.683	
A549					0.704	0.798	0.775	0.803	0.8											
NCI-H522	0.879	0.944	0.302	0.365																0.826
NCI-H2170	0.83	0.184	0.146	0.2	1.08	1.18	1.11		1.3											0.854
SW 900	0.689	0.568	0.188	0.137																0.557
NCI-H1395	0.348	0.319	0.351	0.325																0.382
IA-LM					0.704	0.818	0.727	0.616	0.989	0.738	0.798	0.871	0.933	0.857	0.772	0.623	0.0686	0.0705	0.0718	
NCI-H358	0.408	0.266	0.153	0.177	0.606	0.604	0.604	0.437	0.651											0.64
EBC-1					0.178	0.21	0.19	0.214	0.184	0.543	0.63	0.608	0.562	0.713	0.477	0.46	0.222	0.217	0.175	
